Test results as given in US8258182B2, “Substituted 1,3-diphenylpropane derivatives, preparations and uses thereof” (Genfit, priority 2006, dated 2012).

Test system: MCP1 secretion by THP1 monocytes
Test: Secretion of MCP1 by THP1 monocytes stimulated with PMA (ELISA)
Assay type: cell-based, human
Settings: 1 μM, 24 hours, PMA 5 ng/ml, vs DMSO alone (FIG. 4-1)
Method: The anti-inflammatory effects of the compounds according to the invention were evaluated by measuring the secretion of MCP1 (Monocyte chemotactic protein-1) by THP1 monocytes treated for 24 hours with the compounds according to the invention and stimulated simultaneously with PMA (Phorbol 12-myristate 13-acetate, which promotes an inflammatory response in cells and their differentiation into macrophages).
The anti-inflammatory effects of the compound according to the invention were evaluated by measuring the secretion of MCP1 (Monocyte chemotactic protein-1) by THP1 monocytes treated for 24 hours with the compounds according to the invention and stimulated simultaneously with PMA (Phorbol 12-myristate 13-acetate, which promotes an inflammatory response in cells and their differentiation into macrophages). […]
The treatment medium is recovered and the MCP1 concentration is measured using the ELISA kit<<Human MCP-1 ELISA Set>>(BD OptEIA; 555179) in accordance with the manufacturer's recommendation.
MCP1 is laid on a plate and is recognized by a anti-MCP1 specific antibody. […] The coloration resulting from the enzymating activity is proportional to the quantity of fixed MCP1 and can be measured by a spectrophotometry method. A range is performed from a point representative of a known concentration and from which the MCP1 concentration of each sample is calculated. […]

CCCOc1ccc(C(=O)CCc2cc(C)c(OC(C)(C)C(=O)O)c(C)c2)cc1 [Compound 8, 2-[2,6-dimethyl-4-[3-[4-(propyloxy)phenyl]-3-oxo-propyl]phenoxyl]-2-methylpropanoic acid]
MCP1 secreted by monocytes: significant reduction
